In brackets after ≈: the same amount, converted by molar mass. Where two headings read alike, the source gives them in different places. One block for each compound: values may come before it. Starred links: 1 amine or outer side, 2 acyl side, 3 side chain; linkers in the order of their positions; H or OH if unused. Positions of bridges follow the written chain, without caps; N, C: chain ends. Non-standard residues stand in square brackets, D forms with d. Residues, ends and D or L forms follow the SMILES beside them. *: point of attachment. Orn(4R-OH,5R-OH) = O=C([C@H](C[C@@H](O)[C@@H](O)N[*:3])N[*:1])[*:2]; hTyr(3S-OH,4S-OH) = N[C@H](C(=O)O)[C@H](O)[C@@H](O)c1ccc(O)cc1; Pro(3S-OH,4S-Me) = C[C@H]1CN[C@H](C(=O)O)[C@H]1O; Benzoyl(4-octyloxy) = CCCCCCCCOc1ccc(C(=O)*)cc1; Gln(3R-OH) = NC(=O)C[C@@H](O)[C@H](N)C(=O)O; Hyp = O=C(O)[C@@H]1C[C@@H](O)CN1; Tridecanoyl = CCCCCCCCCCCCC(=O)*; Myristoyl = CCCCCCCCCCCCCC(=O)*; Lauroyl = CCCCCCCCCCCC(=O)*; 4Abz = Nc1ccc(C(=O)O)cc1
Assays:
physchem = details: 66% aqueous dimethylformamide, pH 7.32
Neurospora crassa 846 = test: Agar-plate disc-diffusion test (zone of inhibition); assay type: cell-based; details: methanol suspension 1 mg/ml, 7-mm disc, 24—48 hours at 25—37°C, * = distinct zone with regrowth of organism around disc
Procedure: (§1) In Table IV activity is measured by the size (diameter in mm) of the observed zone of inhibition of the microorganism produced by the test compound. In Table V activity is measured by the minimal inhibitory concentration (MIC) of the substance (mg/disc) required to inhibit growth of the test organism. Table VI gives the results of the testing in vitro of the p-(n-octyloxy)benzoyl derivative of A-30912A nucleus against five strains of Candida albicans by the agar-dilution method. In Table VI activity is measured by the minimal inhibitory concentration (MIC) of the substance (mg/ml) required to inhibit the test organism.

[1] = test system: Saccharomyces pastorianus X—52; test: as above; assay type: cell-based; details: methanol suspension 1 mg/ml, 7-mm disc, incubation 24—48 hours at 25—37°C
Procedure: as §1

[2] = test system: Trichophyton mentagrophytes A—23; test: as above; assay type: cell-based; details: read-out: Size of Zone of Inhibition (mm)
Procedure: as §1

Candida albicans A-26 = test: Therapeutic activity against systemic C. albicans infection in mice; assay type: in vivo
Procedure: The results of in vivo tests to evaluate the effectiveness of the derivatives against an infection caused by Candida albicans A-26 in mice are given in Table VII. In these tests activity is measured by the ED50 value (the dose in mg/kg required to cure 50% of the test animals). Where an ED50 value was not obtained, activity is indicated by the lowest dose at which a significant antifungal effect is observed. In these tests, groups of male albino mice (specific pathogen free), weighing 18 to 20 grams, are infected intravenously with Candida albicans A-26. The animals are X-irradiated 24 hours prior to infection at about 50 roentgens per minute for 8 minutes (400 total dose) to reduce immune responses to the infecting organism. At 0, 4, and 24 hours post infection each group of mice is given graded doses subcutaneously of the test compound as a suspension in 33% polyethylene glycol(PEG)-water. The day of death for each animal is recorded.

in vivo = details: mouse, po, 416 mg/kg
Procedure: (§2) At time intervals, blood samples are taken from the orbital sinus and are assayed for antibiotic activity as follows: A 7-mm disc containing 20 ml of whole blood is placed on agar seeded with Aspergillus montevidensis A35137. After 40 hours incubation at 30°C, zones of inhibition from the blood samples are compared to a standard obtained from the test compound, and the amount of compound in the blood sample is calculated.

[3] = Blood levels after oral administration in mice (bioassay vs. Aspergillus montevidensis); details: mouse, 416 mg/kg
Procedure: as §2

Candida albicans [4] = test: Agar-dilution MIC against five Candida albicans strains; assay type: cell-based; details: agar-dilution method
Procedure: as §1

Candida albicans [5] = details: characteristics from German Offenlegungschrift 2,628,965 / U.S. Patent 4,173,629; cited from earlier work
[6] = Neurospora crassa 846, read-out: Size of Zone of Inhibition (mm)
[7] = Saccharomyces pastorianus X—52, read-out: Size of Zone of Inhibition (mm)
[8] = Candida albicans, A26, light or radiation study, sc, X-irradiated mice infected i.v. with C. albicans A-26, subcutaneous doses at 0, 4 and 24 hours, lowest dose with significant antifungal effect (survival time), read-out: Lowest Active Dose
[9] = Candida albicans, A26, light or radiation study, sc, X-irradiated mice infected i.v. with C. albicans A-26, subcutaneous doses at 0, 4 and 24 hours post infection, suspension in PEG-water, dose curing 50% of animals, read-out: ED50

SMILES: CCCCCCCCCCCC(=O)Nc1ccc(C(=O)N[C@H]2C[C@@H](O)[C@@H](O)NC(=O)[C@@H]3[C@@H](O)[C@@H](C)CN3C(=O)[C@H]([C@@H](C)O)NC(=O)[C@H]([C@H](O)[C@@H](O)c3ccc(O)cc3)NC(=O)[C@@H]3C[C@@H](O)CN3C(=O)[C@H]([C@@H](C)O)NC2=O)cc1 [Reference Example 7, N-(n-dodecanoyl)-p-aminobenzoyl derivative of A-30912A nucleus] ({Lauroyl-4Abz}-[Orn(4R-OH,5R-OH)]T[Hyp][hTyr(3S-OH,4S-OH)]T[Pro(3S-OH,4S-Me)]; lactam 1-C)
zone of inhibition at 1000 µg/mL (Neurospora crassa 846; Neurospora crassa, 846, 48 h, read-out: Size of Zone of Inhibition (mm), Neurospora crassa 846): 33 mm | zone of inhibition at 1000 µg/mL ([1]; Saccharomyces pastorianus, 48 h, read-out: Size of Zone of Inhibition (mm), Saccharomyces pastorianus X—52): 21 mm | zone of inhibition at 1000 µg/mL ([2]; Trichophyton mentagrophytes, 48 h): 55 mm | ED50 (Candida albicans A-26; Candida albicans, A26, light or radiation study, sc): 15 mg/kg | minimal effective dose (Candida albicans A-26; Candida albicans, A26, light or radiation study, sc, read-out: Lowest Active Dose (mg/kg), X-irradiated mice infected i.v. with C. albicans A-26, subcutaneous doses at 0, 4 and 24 hours, lowest dose with significant antifungal effect (survival time)): 10 mg/kg | concentration at 4 h [3]: 830 µg/mL

SMILES: CCCCCCCCOc1ccc(C(=O)N[C@H]2C[C@@H](O)[C@@H](O)NC(=O)[C@@H]3[C@@H](O)[C@@H](C)CN3C(=O)[C@H]([C@@H](C)O)NC(=O)[C@H]([C@H](O)[C@@H](O)c3ccc(O)cc3)NC(=O)[C@@H]3C[C@@H](O)CN3C(=O)[C@H]([C@@H](C)O)NC2=O)cc1 [Reference Example 13, p-(n-octyloxy)benzoyl derivative of A-30912A nucleus] ({Benzoyl(4-octyloxy)}-[Orn(4R-OH,5R-OH)]T[Hyp][hTyr(3S-OH,4S-OH)]T[Pro(3S-OH,4S-Me)]; lactam 1-C)
zone of inhibition at 1000 µg/mL (Neurospora crassa 846; [6]): 23 mm | zone of inhibition at 1000 µg/mL [1, 7]: 18 mm | MIC (Candida albicans [4]; Candida albicans strain A26, read-out: MIC): 0.312 µg/mL (≈ 0.303 µM) | MIC (Candida albicans [4]; Candida albicans strain SBH 16): 0.312 µg/mL (≈ 0.303 µM) | MIC (Candida albicans [4]; Candida albicans strain SBH 28): 0.312 µg/mL (≈ 0.303 µM) | MIC (Candida albicans [4]; Candida albicans strain SBH 29): 0.312 µg/mL (≈ 0.303 µM) | MIC (Candida albicans [4]; Candida albicans strain SBH 31): 0.312 µg/mL (≈ 0.303 µM) | minimal effective dose (Candida albicans A-26; [8]): 10 mg/kg | ED50 (Candida albicans A-26; [9]): 13 mg/kg | ED50 (Candida albicans A-26; X-irradiated mice infected i.v. with C. albicans A-26, subcutaneous doses at 0, 4 and 24 hours post infection, suspension in PEG-water, dose curing 50% of animals): 22.2 mg/kg | Lowest Active Dose (Candida albicans A-26; X-irradiated mice infected i.v. with C. albicans A-26, subcutaneous doses at 0, 4 and 24 hours, lowest dose with significant antifungal effect (survival time)): >12.5 mg/kg | concentration at 4 h [3]: 23000 µg/mL

SMILES: CCCCCCCCCCCCCC(=O)N[C@H]1C[C@@H](O)[C@@H](O)NC(=O)[C@@H]2[C@@H](O)[C@@H](C)CN2C(=O)[C@H]([C@H](O)CC(N)=O)NC(=O)[C@H]([C@H](O)[C@@H](O)c2ccc(O)cc2)NC(=O)[C@@H]2C[C@@H](O)CN2C(=O)[C@H]([C@@H](C)O)NC1=O [S 31794/F-1] (Myristoyl-[Orn(4R-OH,5R-OH)]T[Hyp][hTyr(3S-OH,4S-OH)][Gln(3R-OH)][Pro(3S-OH,4S-Me)]; lactam 1-C)
antifungal activity (Candida albicans [5]): has antifungal activity, especially against Candida albicans

More lines, main results first:

pKa (physchem): ~7.35
SMILES: C[C@@H](O)[C@@H]1NC(=O)[C@H]([C@H](O)[C@@H](O)c2ccc(O)cc2)NC(=O)[C@@H]2C[C@@H](O)CN2C(=O)[C@H]([C@@H](C)O)NC(=O)[C@@H](N)C[C@@H](O)[C@@H](O)NC(=O)[C@@H]2[C@@H](O)[C@@H](C)CN2C1=O [A-30912A nucleus] (H-[Orn(4R-OH,5R-OH)]T[Hyp][hTyr(3S-OH,4S-OH)]T[Pro(3S-OH,4S-Me)]; lactam 1-C)

concentration at 4 h (in vivo): 100 µg/mL
SMILES: CCCCCCCCCCCCC(=O)N[C@H]1C[C@@H](O)[C@@H](O)NC(=O)[C@@H]2[C@@H](O)[C@@H](C)CN2C(=O)[C@H]([C@@H](C)O)NC(=O)[C@H]([C@H](O)[C@@H](O)c2ccc(O)cc2)NC(=O)[C@@H]2C[C@@H](O)CN2C(=O)[C@H]([C@@H](C)O)NC1=O [Reference Example 1] (Tridecanoyl-[Orn(4R-OH,5R-OH)]T[Hyp][hTyr(3S-OH,4S-OH)]T[Pro(3S-OH,4S-Me)]; lactam 1-C)
zone of inhibition at 1000 µg/mL (Neurospora crassa 846; [6]): 32 mm | zone of inhibition at 1000 µg/mL [1, 7]: 21 mm | zone of inhibition at 1000 µg/mL ([2]; Trichophyton mentagrophytes A—23, methanol suspension 1 mg/ml, 7-mm disc, 24—48 hours at 25—37°C, * = distinct zone with regrowth of organism around disc): 60 mm | minimal effective dose (Candida albicans A-26; [8]): 20 mg/kg | ED50 (Candida albicans A-26; [9]): 34 mg/kg
